From patent US20090270391A1, “THIENOPYRIDINE DERIVATIVE, OR QUINOLINE DERIVATIVE, OR QUINAZOLINE DERIVATIVE, HAVING c-MET AUTOPHOSPHORYLATION INHIBITING POTENCY” (Kirin Pharma Kabushiki Kaisha, priority 2005, published 2009)

Experiments:
c-Met [1] = target: T1, c-Met (Homo sapiens, UniProt P08581); test: c-Met autophosphorylation inhibitory activity (general statement)
Target sequence in this assay (P08581 25-1390): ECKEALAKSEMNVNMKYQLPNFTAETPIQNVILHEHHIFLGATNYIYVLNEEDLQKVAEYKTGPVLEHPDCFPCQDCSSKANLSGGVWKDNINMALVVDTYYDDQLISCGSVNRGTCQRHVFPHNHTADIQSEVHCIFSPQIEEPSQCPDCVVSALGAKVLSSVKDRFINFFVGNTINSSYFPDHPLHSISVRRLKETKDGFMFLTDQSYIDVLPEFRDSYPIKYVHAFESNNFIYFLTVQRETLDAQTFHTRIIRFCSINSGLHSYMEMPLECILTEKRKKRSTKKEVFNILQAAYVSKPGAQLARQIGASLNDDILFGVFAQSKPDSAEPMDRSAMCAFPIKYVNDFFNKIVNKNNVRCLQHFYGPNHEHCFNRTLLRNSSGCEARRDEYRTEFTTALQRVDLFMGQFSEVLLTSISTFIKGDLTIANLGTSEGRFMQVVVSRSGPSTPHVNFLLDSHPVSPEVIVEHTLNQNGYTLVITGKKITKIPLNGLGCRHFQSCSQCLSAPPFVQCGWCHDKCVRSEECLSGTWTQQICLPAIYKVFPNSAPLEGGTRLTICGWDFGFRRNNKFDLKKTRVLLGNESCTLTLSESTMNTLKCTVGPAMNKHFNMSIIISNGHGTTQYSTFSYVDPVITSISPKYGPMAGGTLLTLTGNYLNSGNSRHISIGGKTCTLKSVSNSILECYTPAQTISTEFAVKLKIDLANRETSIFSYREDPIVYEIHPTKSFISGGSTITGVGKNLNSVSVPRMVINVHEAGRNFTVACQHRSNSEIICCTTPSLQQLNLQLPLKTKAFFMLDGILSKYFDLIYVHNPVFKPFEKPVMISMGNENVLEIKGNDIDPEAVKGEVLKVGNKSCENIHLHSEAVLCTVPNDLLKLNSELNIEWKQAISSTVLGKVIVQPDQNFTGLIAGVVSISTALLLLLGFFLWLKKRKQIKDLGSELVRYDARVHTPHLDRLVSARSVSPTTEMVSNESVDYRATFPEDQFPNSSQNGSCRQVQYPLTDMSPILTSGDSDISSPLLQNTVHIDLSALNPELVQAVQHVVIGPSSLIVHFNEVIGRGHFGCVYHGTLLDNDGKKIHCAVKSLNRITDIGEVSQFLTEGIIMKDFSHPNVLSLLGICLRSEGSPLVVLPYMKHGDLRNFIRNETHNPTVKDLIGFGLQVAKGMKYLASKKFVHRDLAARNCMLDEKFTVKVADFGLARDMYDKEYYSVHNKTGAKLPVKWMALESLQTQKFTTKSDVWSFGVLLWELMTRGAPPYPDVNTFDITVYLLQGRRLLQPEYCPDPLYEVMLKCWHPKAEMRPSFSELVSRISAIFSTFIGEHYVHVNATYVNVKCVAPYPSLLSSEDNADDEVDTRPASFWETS

KDR = KDR (Homo sapiens, UniProt P35968); test: KDR autophosphorylation inhibitory activity (general statement)
[2] = system: Human gastric cancer cell line MKN 45; test: Tumor growth inhibitory activity against human gastric cancer cell line MKN 45 in nude mice; assay type: in vivo; details: oral once a day
Experimental: Human gastric cancer cell line MKN 45 (available from Riken) was transplanted into nude mice. […] The test compound suspended in 0.5% methylcellulose was orally administered once a day for 9 days.
Only 0.5% methylcellulose was administered to the control group in the same manner as in the test groups. The tumor growth inhibition rate (TGIR) was calculated as follows: The tumor growth inhibition rate (TGIR)=(1−TX/CX)×100 wherein CX represents the volume of tumor at day X for the control group and TX represents the volume of tumor for test compound administration groups, when the tumor volume at the day of the start of the administration was presumed to be 1.

c-Met [3] = target: T1, c-Met; test: Measurement (2) of inhibitory activity against c-Met autophosphorylation using ELISA method (MKN45 cells); assay type: cell-based; design: endogenous in cells; host or cells: MKN45; details: c-Met phosphorylation in MKN45 cells, no HGF
Experimental: Human gastric cancer cell line MKN45 (available from Riken) was cultured in an RPMI 1640 medium containing 10% fetal calf serum (purchased from GIBCO BRL) within a 5% carbon dioxide incubator until 50 to 90% confluent. The harvested cells were inoculated into wells, containing an RPMI medium containing 0.1% fetal calf serum, in a 96-well flat-bottom plate in an amount of 2×10^4 per well, followed by cultivation at 37° C. overnight. The medium was then replaced by a fresh RPMI medium containing 0.1% fetal calf serum. The test compound dissolved in dimethyl sulfoxide was added to each well, and the cultivation was continued at 37° C. for additional one hr. The medium was removed, the cells were washed with phosphate buffered physiological saline (pH 7.4), and 50 μl of a solubilization buffer (20 mM HEPES (pH 7.4), 150 mM NaCl, 0.2%/0 Triton X-100, 100, 10% glycerol, 5 mM sodium orthovanadylate, 5 mM disodium ethylenediaminetetraacetate, and 2 mM Na4P2O7) was then added thereto. The mixture was shaken at 4° C. for 2 hr to prepare a cell extract.
Separately, phosphate buffered physiological saline (50 μl, pH 7.4) containing 5 μg/ml anti-phospho-tyrosine antibody (PY20; purchased from Transduction Laboratories) was added to a microplate for ELISA (Maxisorp; purchased from NUNC), followed by standing at 4° C. overnight to form a solid phase. After washing of the plate, 300 μl of a blocking solution was added, followed by standing at room temperature for 2 hr to perform blocking. After washing, the whole quantity of the cell extract was transferred, and the plate was then allowed to stand at 4° C. overnight. After washing, an anti-HGF receptor antibody (h-Met (C-12), purchased from Santa Cruz Biotechnology) was allowed to react at room temperature for one hr, and, after washing, a peroxidase-labeled anti-rabbit Ig antibody (purchased from Amersham) was allowed to react at room temperature for one hr. After washing, a chromophoric substrate for peroxidase (purchased from Sumitomo Bakelite Co., Ltd.) was added thereto to initiate a reaction. After a suitable level of color development, a reaction termination solution was added to stop the reaction, and the absorbance at 450 nm was measured with a microplate reader. The c-Met phosphorylation activity for each well was determined by presuming the absorbance without the addition of the test compound to be 100% c-Met phosphorylation activity and the absorbance with the addition of a largely excessive amount of positive control to be 0% c-Met phosphorylation activity. The concentration of the test compound was varied on several levels, the inhibition rate of c-Met-phosphorylation was determined for each case, and the concentration of the test compound necessary for inhibiting 50% of c-Met phosphorylation (IC50) was calculated.
Target sequence in this assay (P08581 25-1390): as above

c-Met [4] = target: T1, c-Met; test: Measurement of human c-Met enzyme inhibitory activity (ELISA, Poly Glu:Tyr); assay type: biochemical; design: a part (955 to 1368aa) around human c-Met kinase domain; GST; made in house; host or cells: SF9 insect cells (baculovirus); details: human c-Met kinase domain (955 to 1368aa), ATP 10 μM
Source text: cDNA coding for a part (955 to 1368aa) around human c-Met kinase domain was integrated into a pFastBac vector (Invitrogen) with a GST tag inserted therein, followed by transformation into DH10Bac to give Bacmid DNA which was then introduced into SF9 cells (GIBCO). Infection with a virus liquid was repeated five times, and SF9 cells were then broken, followed by purification using a GSH column to give a c-Met kinase active protein.
Poly Glu: Tyr=4:1 (SIGMA) was coated onto a 96-well immunoplate (442404, NALGE NUNC International K.K.). Kinase buffer (50 mM HEPES (pH 7.5), 25 mM NaCl, 0.01 mM Na3VO4, 0.01% BSA), a test compound, and the kinase protein were added, and the mixture was incubated for 10 min. ATP (10 μM, SIGMA) was then added, and a reaction was allowed to proceed for 10 min. The plate was washed three times with PBST and was reacted with a primary antibody PY-20 (BD-610000, B.D. Bioscience) and a secondary antibody GAM (NA-9310V, Abersham) each at room temperature for one hr. The plate was washed with PBST, color development was then carried out with SUMILON (ML-1120T, Sumitomo Bakelite Co., Ltd.), and phosphorylated tyrosine was quantitatively determined by measuring the absorbance at 450 nm. IC50 was calculated based on a concentration difference curve for the test compound by presuming the absorbance of the wells without the addition of ATP to be 100% inhibition and the absorbance of the wells with the addition of the medium for the test compound and ATP to be 0% inhibition.
Target sequence in this assay (P08581 955-1368): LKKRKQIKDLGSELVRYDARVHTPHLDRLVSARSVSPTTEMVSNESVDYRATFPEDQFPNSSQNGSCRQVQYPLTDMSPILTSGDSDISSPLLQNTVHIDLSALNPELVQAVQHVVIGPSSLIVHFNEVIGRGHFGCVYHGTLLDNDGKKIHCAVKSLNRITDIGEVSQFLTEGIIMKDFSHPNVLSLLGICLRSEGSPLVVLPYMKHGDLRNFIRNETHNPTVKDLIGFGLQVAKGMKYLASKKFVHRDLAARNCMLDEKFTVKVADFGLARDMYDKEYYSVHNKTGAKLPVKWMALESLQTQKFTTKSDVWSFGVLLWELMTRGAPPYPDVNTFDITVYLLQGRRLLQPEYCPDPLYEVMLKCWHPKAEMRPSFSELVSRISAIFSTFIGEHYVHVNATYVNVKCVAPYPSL

KDR, sequence (P35968 20-1356): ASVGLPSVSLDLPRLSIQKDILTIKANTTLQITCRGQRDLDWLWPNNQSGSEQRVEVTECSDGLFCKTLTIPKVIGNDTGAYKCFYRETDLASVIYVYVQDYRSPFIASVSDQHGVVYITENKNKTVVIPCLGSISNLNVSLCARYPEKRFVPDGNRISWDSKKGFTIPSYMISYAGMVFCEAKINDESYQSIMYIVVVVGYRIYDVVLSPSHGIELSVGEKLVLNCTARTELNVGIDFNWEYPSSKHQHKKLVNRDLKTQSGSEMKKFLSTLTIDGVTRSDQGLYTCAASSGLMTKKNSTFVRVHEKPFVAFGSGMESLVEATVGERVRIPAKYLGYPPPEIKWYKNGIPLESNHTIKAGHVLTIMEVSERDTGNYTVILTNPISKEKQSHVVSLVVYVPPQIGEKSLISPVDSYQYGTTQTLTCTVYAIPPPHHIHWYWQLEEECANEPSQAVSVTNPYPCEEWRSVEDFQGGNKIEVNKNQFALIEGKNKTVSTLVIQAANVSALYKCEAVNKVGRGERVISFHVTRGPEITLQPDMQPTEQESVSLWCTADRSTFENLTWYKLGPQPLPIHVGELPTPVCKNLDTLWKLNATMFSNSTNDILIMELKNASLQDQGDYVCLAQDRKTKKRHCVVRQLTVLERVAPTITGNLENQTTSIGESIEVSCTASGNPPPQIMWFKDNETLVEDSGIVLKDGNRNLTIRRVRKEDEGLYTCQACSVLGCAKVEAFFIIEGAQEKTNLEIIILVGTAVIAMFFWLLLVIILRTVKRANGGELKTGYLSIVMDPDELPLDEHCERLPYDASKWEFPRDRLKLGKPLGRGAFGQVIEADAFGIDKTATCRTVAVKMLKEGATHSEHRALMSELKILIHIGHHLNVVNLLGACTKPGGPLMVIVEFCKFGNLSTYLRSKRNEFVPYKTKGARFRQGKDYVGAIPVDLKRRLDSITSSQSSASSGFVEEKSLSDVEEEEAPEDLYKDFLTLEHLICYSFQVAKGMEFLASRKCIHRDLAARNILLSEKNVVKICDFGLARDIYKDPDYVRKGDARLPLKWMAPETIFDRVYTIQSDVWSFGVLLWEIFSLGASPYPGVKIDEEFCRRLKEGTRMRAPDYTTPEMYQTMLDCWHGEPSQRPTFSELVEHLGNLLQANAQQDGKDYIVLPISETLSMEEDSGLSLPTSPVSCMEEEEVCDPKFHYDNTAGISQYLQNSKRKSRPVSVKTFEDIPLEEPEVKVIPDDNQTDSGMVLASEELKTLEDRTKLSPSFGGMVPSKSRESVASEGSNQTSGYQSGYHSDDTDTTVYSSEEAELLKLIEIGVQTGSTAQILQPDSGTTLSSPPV

| Compound | c-Met autophosphorylation inhibitory activity (c-Met [1]) | KDR autophosphorylation inhibitory activity (KDR) | IC50 (c-Met [3]) | IC50 (c-Met [4]) | TGIR (tumor growth inhibition rate) ([2]; 9th day) | TGIR (tumor growth inhibition rate) ([2]; 10th day) |
| --- | --- | --- | --- | --- | --- | --- |
| COc1cc(Oc2ccnc3cc(OCCCN4CCOCC4)c(OC)cc23)ccc1NC(=S)NC(=O)Cc1ccccc1 [Compound B, N-{2-methoxy-4-[6-methoxy-7-(3-morpholinopropoxy)-4-quinolyl]oxyphenyl}-N′-(2-phenylacetyl)thiourea] | high | low | – | – | – | – |
| Cn1ccnc1-c1cc2nccc(Oc3ccc(NC(=S)NC(=O)Cc4ccc(F)cc4)cc3Cl)c2s1 [Example 1, N-(3-Chloro-4-{[2-(1-methyl-1H-2-imidazolyl)thieno[3,2-b]pyridin-7-yl]oxy}phenyl)-N-[2-(4-fluorophenyl)-acetyl]thiourea] | – | – | 32.8 nM | 3.2 nM | 63.8% | – |
| COc1cc(Oc2ccnc3cc(OC)c(OC)cc23)ccc1NC(=S)NC(=O)Cn1ncc2ccccc21 [Example 15, N-4-[(6,7-Dimethoxy-4-quinolyl)oxy]-2-methoxyphenyl-N′-[2-(1 H-1-indazolyl)acetyl]thiourea] | – | – | 13.2 nM | 9.6 nM | – | – |

Continued, in another order:

| c-Met autophosphorylation inhibitory activity (c-Met [1]) | KDR autophosphorylation inhibitory activity (KDR) | IC50 (c-Met [3]) | IC50 (c-Met [4]) | Compound | TGIR (tumor growth inhibition rate) ([2]; 9th day) | TGIR (tumor growth inhibition rate) ([2]; 10th day) |
| --- | --- | --- | --- | --- | --- | --- |
| – | – | 22.3 nM | 12.5 nM | COc1cc2nccc(Oc3ccc(NC(=O)NC(=O)Cn4ncc5ccccc54)cc3F)c2cc1OC [Example 14, N-4-[(6,7-Dimethoxy-4-quinolyl)oxy]-3-fluorophenyl-N′-[2-(1H-1-indazolyl)acetyl]urea] | – | 42.6% |
| – | – | 35.9 nM | – | COc1cc2nccc(Oc3ccc(NC(=O)NC(=O)Cn4ccc5ccccc54)cc3F)c2cc1OC [Example 16, N-4-[(6,7-Dimethoxy-4-quinolyl)oxy]-3-fluorophenyl-N′-[2-(1H-1-indolyl)acetyl]urea] | – | – |
